These results are taken from patent publication US20080262228A1, “Metabolites of 5-fluoro-8- quinoline and methods of preparation and uses thereof” (Wyeth, priority 2006, published 2008).

The structures appear in SMILES notation. Counter-ions that a name gives are not always drawn. Like-named read-outs stand apart in the source and are kept apart here.

A short description of data set [1]: In vivo metabolism of [14C]COMPOUND I in Sprague-Dawley rats, single oral 5 mg/kg dose. Further details: species or system rat. The following applies: for Chromatographic Distribution of Radioactivity in Pooled Plasma Samples: 5 mg/kg oral [14C]COMPOUND I; for percent of total radioactivity in the fecal extract: pooled 0-24 hr feces; for Source: P, plasma, F, feces, B, brain.

Data set [2] is described as follows: Metabolite characterization in cryopreserved hepatocytes. Conditions: hepatocyte incubations, 20 μM; R, rat; D, dog; H, human; Media = decomposition product observed in media control.
Procedure: Pooled male rat, dog, and mixed male and female human cryopreserved hepatocytes were used in this study. The cryopreserved hepatocytes (two vials from each species; three to five million viable cells per vial) were thawed in a 37° C. water bath with gentle shaking until the ice was almost melted. The suspensions from the two individual vials of the same species were immediately transferred to a 50 mL centrifuge tube containing pre-warmed thawing media at 37° C. with gentle handshaking to prevent the cells from settling. The cell suspension was centrifuged at 50 g for 5 min at 4° C. Supernatants were discarded and the pellets were resuspended in pre-warmed incubation media (8 mL) at 37° C. […] [^14C]COMPOUND I (20 μM) was incubated in a 12-well plate containing hepatocyte suspensions at 1.0 mL per well in duplicate (≧1 million viable cells/well) at 37° C. for 1 or 4 hr in the presence of 5% CO2:95% O2. Control incubations without hepatocytes were also run under the same conditions. Positive controls containing [^14C]7-ethoxycoumarin (100 μM) were also incubated under the same conditions, but only for 1 hr. At the end of the incubations, reactions were stopped by adding acetonitrile with 2% acetic acid (1 mL), mixed for 10 min, followed by centrifugation at 4000 rpm for 10 min at 4° C. Aliquots (50 μL) of supernatants were analyzed by HPLC with UV and radioactivity flow detection for metabolite profiling, and by LC/MS for metabolite identification as described in below. To determine extraction recovery, aliquots (20 μL) of supernatants were analyzed for radioactivity content utilizing a Packard Tri-Carb Model 3100 TR liquid scintillation counter and 5 mL of Ultima Gold.
The HPLC system used for mass spectrometric analysis was a Waters Alliance model 2695 HPLC system (Waters Corp). It was equipped with a built-in autosampler and a model 996 diode array UV detector. The UV detector was set to monitor 210-400 nm. The HPLC conditions were the same as those described hereinabove with the following exceptions. […]
[3] abbreviates: female, Sprague-Dawley, rat, brain and plasma, po, 5 mg/kg, read-out: Brain/Plasma COMPOUND I Ratio.
Where [4] appears, read: male, Sprague-Dawley, rat, brain and plasma, po, 5 mg/kg, read-out: Brain/Plasma COMPOUND I Ratio.

Turning to `COc1cc(N2CCN(C3CCN(c4ccc(F)c5cccnc45)CC3)CC2)c2ncccc2c1` [COMPOUND I, 5-Fluoro-8-{4-[4-(6-methoxyquinolin-8-yl)piperazin-1-yl]piperidin-1-yl}quinoline], the Kp in data set [1] (Sprague-Dawley, rat, brain and plasma, rats, 5 mg/kg oral, read-out: brain-to-plasma ratios of COMPOUND I concentrations) is 0.47 to 0.85. The concentration at 1 hr stood at 106 ng/g in data set [1] (Sprague-Dawley, rat, female rats, 1 hr, 5 mg/kg oral, mean brain radioactivity x percentage of COMPOUND I in pooled sample, read-out: Brain COMPOUND I Concentrations) and 40.9 ng/g in data set [1] (Sprague-Dawley, rat, male rats, 1 hr, 5 mg/kg oral, mean brain radioactivity x percentage of COMPOUND I in pooled sample, read-out: Brain COMPOUND I Concentrations). Besides, the concentration at 3 hr in data set [1] (Sprague-Dawley, rat, female rats, 3 hr, 5 mg/kg oral, mean brain radioactivity x percentage of COMPOUND I in pooled sample, read-out: Brain COMPOUND I Concentrations) was 34.7 ng/g; in data set [1] (Sprague-Dawley, rat, male rats, 3 hr, 5 mg/kg oral, mean brain radioactivity x percentage of COMPOUND I in pooled sample, read-out: Brain COMPOUND I Concentrations), 15.9 ng/g. Also, the concentration at 6 hr in data set [1] (Sprague-Dawley, rat, male rats, 6 hr, 5 mg/kg oral, mean brain radioactivity x percentage of COMPOUND I in pooled sample, read-out: Brain COMPOUND I Concentrations) turned out to be 10 ng/g. Moreover, the “Chromatographic Distribution of Radioactivity in Pooled Plasma Samples” value in data set [1] (female rats, 1 hr) is listed as 16.4%; in data set [1] (female rats, 3 hr) it was 14.6%; in data set [1] (male rats, 1 hr), 16.9%; in data set [1] (male rats, 3 hr), 15.5%; in data set [1] (male rats, 6 hr), 8.7%. Further, the “percent of total brain radioactivity” value is listed as 79.5% in data set [1] (female rats, 1 hr, pooled brain, 5 mg/kg oral); 70.7% in data set [1] (female rats, 3 hr, pooled brain, 5 mg/kg oral); 80.3% in data set [1] (male rats, 1 hr, pooled brain, 5 mg/kg oral); 63.8% in data set [1] (male rats, 3 hr, pooled brain, 5 mg/kg oral); 60.5% in data set [1] (male rats, 6 hr, pooled brain, 5 mg/kg oral). For the same compound, the figures for the Kp at 1 h in data set [1] (setting [3]) and in data set [1] (setting [4]) were 0.77 and 0.47, respectively. In addition, the Kp at 3 h in data set [1] (setting [3]) was found to be 0.58; in data set [1] (setting [4]), 0.54. Besides, the “percent of total plasma radioactivity” value in data set [1] (male rats, from 1 to 6 hr post-dose, 5 mg/kg oral) was 8.7-16.9%. Moreover, the “percent of total radioactivity in the fecal extract” value in data set [1] (male rats, 5 mg/kg oral) is recorded as 8.1%. Further, the Kp at 6 h in data set [1] (setting [4]) worked out at 0.85. The Source result in data set [1] (rats, 5 mg/kg oral) is “P, B, F”; in data set [2], “All”.
In the case of `Oc1cc(N2CCN(C3CCN(c4ccc(F)c5cccnc45)CC3)CC2)c2ncccc2c1` [Metabolite M21, 8-{4-[1-(5-fluoroquinolin-8-yl)piperidin-4-yl]piperazin-1-yl}quinolin-6-ol trihydrochloride], the “percent of total brain radioactivity” value in data set [1] (female rats, between 1 and 3 hr post-dose, 5 mg/kg oral) is reported as 11.3-13.6%; in data set [1] (male rats, between 1 and 6 hr post-dose, 5 mg/kg oral), 9.0-9.4%. For the same compound, in data set [1] (male rats, 5 mg/kg oral), the “percent of total radioactivity in the fecal extract” value is reported as 15.1%. Besides, the Source result is on record as “B, F” in data set [1] (rats, 5 mg/kg oral) and “R (trace), D, H” in data set [2].
